Assay results reported in patent publication EP0106487A2, “Improvements in or relating to novel bridged hexahydrobenz(f)isoquinolines” (ELI LILLY AND COMPANY, priority 1982, dated 1984).
Counter-ions that a name gives are not always drawn.

Key:
[1] = tested on: Cox standard strain albino male mice; assay: Mouse writhing inhibition assay (acetic acid-induced writhing); type: in vivo; details: sc, s.c. administration, dose required to inhibit acetic acid (0.60 percent, i.p.) induced writhing by fifty percent
[2] = tested on: Cox standard strain albino male mice; assay: as above; type: in vivo; details: po, p.o. administration (gavage, 5% acacia suspension, sixty minutes before acetic acid), dose required to inhibit induced writhing by fifty percent
Text: Mouse Writhing Inhibition Assay
Writhing, characterized by contraction of the abdominal musculature, extension of the hindlegs, and rotation of the trunk, was induced in Cox standard strain albino male mice. The mice,. weighing 18-24 grams, were fasted overnight and given the test compound by gavage in an acacia suspension (5%) sixty minutes before writhing was induced by the intraperitoneal administration of acetic acid (0.60 percent). Each treatment group consisted of 5 mice. The total number of writhes for the treatment group was determined during a 10-minute observation starting 5 minutes after acetic acid administration.
The results in the mouse writhing assay are presented as the effective dose in mg./kg. of the tested compound required to inhibit induced writhing in the test animals by fifty percent (ED50). Results are presented in Column II for both subcutaneous (s.c.) and oral (p.o.) administration of the test compound as compared to the reference compound meperidine.

| Compound | ED50 [1] [mg/kg] | ED50 [2] [mg/kg] |
| --- | --- | --- |
| CN1CCC23CCCC2(CCc2ccc(O)cc23)C1 (racemic) [Example 2, 1,2,3,4,5,6-hexahydro-3-methyl-4a,lOb-propanobenz[f]isoquinolin-9-ol maleate] | 2.4 | 17 |
| CN1CCC23CCCC2(CCc2ccccc23)C1 (racemic) [Example 8, 1,2,3,4,5,6-hexahydro-3-methyl-propanobenz-[f]isoquinoline hydrobromide] | 23 | 68 |
| COc1ccc2c(c1)C13CCCC1(CC2)CN(C)CC3.Cl (stereo not shown) [Example 1, 1,2,3,4,5,6-hexahydro-3-methyl-9-methoxy-4a,10b-propanobenz[f]isoquinoline hydrochloride] | 17 | 23 |
| COc1ccc2c(c1)C13CCCC1(CC2)CNCC3.Cl (stereo not shown) [Example 3, 1,2,3,4,5,6-hexahydro-9-methoxy-4a,10b-propanobenz[f]isoquinoline hydrochloride] | 56 | 66 |
| Oc1ccc2c(c1)C13CCCC1(CC2)CNCC3 (stereo not shown) [Example 4, 1,2,3,4,5,6-hexahydro-4a,10b-propanobenz[f]-isoquinolin-9-ol] | 52 | 78 |
| Oc1ccc2c(c1)C13CCCC1(CC2)CN(CC1CC1)CC3 (stereo not shown) [Example 6, 1,2,3,4,5,6-hexahydro-3-cyclopropylmethyl-4a,10b-propanobenz[f]isoquinolin-9-ol] | 60 | > 80 |
| C=CCN1CCC23CCCC2(CCc2ccc(O)cc23)C1 (stereo not shown) [Example 7, 1,2,3,4,5,6-hexahydro-3-(2-propenyl)-4a,10b-propanobenz-[f]isoquinolin-9-ol] | > 80 | > 80 |
| CCOC(=O)C1(c2ccccc2)CCN(C)CC1 [meperidine, reference compound] | 2.8 | 21 |
